Assay results from ChEMBL document CHEMBL3885861, “Open TG-GATES”.

Species on record: Rattus norvegicus
Assay: Open TG-GATES - Regimen: Daily Repeat
Format: toxicity, organism-based, Sprague-Dawley
Set-up: regimen Daily Repeat, gender Male, age 6 weeks
Conditions: in vivo, po, route gavage; for APTT / Bas / Eos / Fbg / Hb / Ht / Lym / MCH / MCHC / MCV / Mono / Neu / PT / Plat / RBC / Ret / WBC: tissue Blood; for KIDNEY_L / KIDNEY_R / KIDNEY_TOTAL: tissue Kidney; for LIVER: tissue Liver; for A/G / ALP / ALT / AST / BUN / CRE / Ca / Cl / DBIL / GLC / IP / K / LDH / Na / PL / RALB / TBIL / TC / TG / TP / gamma-GTP: tissue Plasma
[1] = 0 mg/kg, 72 h, dose level Control, time 3 day
[2] = 0 mg/kg, […], dose level Control, time 7 day
[3] = 0 mg/kg, […], dose level Control, time 14 day
[4] = 0 mg/kg, […], dose level Control, time 28 day
[5] = 6 mg/kg, 72 h, dose level Low, time 3 day
[6] = 6 mg/kg, […], dose level Low, time 7 day
[7] = 6 mg/kg, […], dose level Low, time 14 day
[8] = 6 mg/kg, […], dose level Low, time 28 day

## CC(C)NNC(=O)c1ccncc1 [IPRONIAZID]
[1]
  TERMINAL_BW: 213.5 g
  APTT: 21.8 s
  Bas: 0%
  Eos: 1%
  Fbg: 301.6 mg/dL
  Hb: 13.2 g/dL
  Ht: 38.2%
  Lym: 78.8%
  MCH: 21.2 pg
  MCHC: 34.5%
  MCV: 61.3 fL
  Mono: 2.8%
  Neu: 16.4%
  PT: 16 s
  Plat: 127.9 x10_4/uL
  RBC: 622.8 x10_4/ul
  Ret: 7.5%
  WBC: 99.6 x10_2/uL
  KIDNEY_L: 1 g
  KIDNEY_R: 1 g
  KIDNEY_TOTAL: 1.9 g
  LIVER: 10.5 g
  A/G: 1.3
  ALP: 1294.6 IU/L
  ALT: 41 IU/L
  AST: 70.2 IU/L
  BUN: 18 mg/dL
  CRE: 0.2 mg/dL
  Ca: 10.8 mg/dL
  Cl: 106.6 meq/L
  DBIL: 0 mg/dL
  GLC: 188.8 mg/dL
  IP: 7.2 mg/dL
  K: 4.6 meq/L
  LDH: 261.8 IU/L
  Na: 141.8 meq/L
  PL: 159.6 mg/dL
  RALB: 3.1 g/dL
  TBIL: 0.004 mg/dL
  TC: 83.8 mg/dL
  TG: 100.4 mg/dL
  TP: 5.5 g/dL
  gamma-GTP: 1 IU/L
[2]
  TERMINAL_BW: 239.8 g
  APTT: 22.5 s
  Bas: 0%
  Eos: 0.8%
  Fbg: 304.6 mg/dL
  Hb: 13.5 g/dL
  Ht: 37.7%
  Lym: 82.4%
  MCH: 21 pg
  MCHC: 35.7%
  MCV: 58.6 fL
  Mono: 2.2%
  Neu: 13.8%
  PT: 15.4 s
  Plat: 110.1 x10_4/uL
  RBC: 642.8 x10_4/ul
  Ret: 6.4%
  WBC: 110.4 x10_2/uL
  KIDNEY_L: 1 g
  KIDNEY_R: 1 g
  KIDNEY_TOTAL: 2 g
  LIVER: 11.2 g
  A/G: 1.1
  ALP: 1693 IU/L
  ALT: 46.6 IU/L
  AST: 77.8 IU/L
  BUN: 19.2 mg/dL
  CRE: 0.2 mg/dL
  Ca: 10.6 mg/dL
  Cl: 106.4 meq/L
  DBIL: 0 mg/dL
  GLC: 198.4 mg/dL
  IP: 6.8 mg/dL
  K: 4 meq/L
  LDH: 220.4 IU/L
  Na: 141.2 meq/L
  PL: 156.2 mg/dL
  RALB: 2.9 g/dL
  TBIL: 0.002 mg/dL
  TC: 77.4 mg/dL
  TG: 110.6 mg/dL
  TP: 5.5 g/dL
  gamma-GTP: 1.2 IU/L
[3]
  TERMINAL_BW: 277.2 g
  APTT: 22.8 s
  Bas: 0%
  Eos: 1%
  Fbg: 301.2 mg/dL
  Hb: 13.6 g/dL
  Ht: 39.5%
  Lym: 82.8%
  MCH: 20 pg
  MCHC: 34.4%
  MCV: 58.1 fL
  Mono: 2.4%
  Neu: 13.4%
  PT: 16 s
  Plat: 110.6 x10_4/uL
  RBC: 679.4 x10_4/ul
  Ret: 5.1%
  WBC: 106.6 x10_2/uL
  KIDNEY_L: 1.1 g
  KIDNEY_R: 1.1 g
  KIDNEY_TOTAL: 2.1 g
  LIVER: 11.8 g
  A/G: 1.1
  ALP: 1298.6 IU/L
  ALT: 35.8 IU/L
  AST: 68.4 IU/L
  BUN: 20.2 mg/dL
  CRE: 0.2 mg/dL
  Ca: 10.5 mg/dL
  Cl: 107.4 meq/L
  DBIL: 0 mg/dL
  GLC: 187.4 mg/dL
  IP: 5.9 mg/dL
  K: 4 meq/L
  LDH: 176.8 IU/L
  Na: 141.8 meq/L
  PL: 135.2 mg/dL
  RALB: 3 g/dL
  TBIL: 0.006 mg/dL
  TC: 66.8 mg/dL
  TG: 126.6 mg/dL
  TP: 5.7 g/dL
  gamma-GTP: 1.6 IU/L
[4]
  TERMINAL_BW: 363.7 g
  APTT: 25.2 s
  Bas: 0%
  Eos: 0.8%
  Fbg: 318.6 mg/dL
  Hb: 14.5 g/dL
  Ht: 40.9%
  Lym: 81.6%
  MCH: 19.7 pg
  MCHC: 35.6%
  MCV: 55.2 fL
  Mono: 1.8%
  Neu: 14.6%
  PT: 15.8 s
  Plat: 108.3 x10_4/uL
  RBC: 741.4 x10_4/ul
  Ret: 3%
  WBC: 103.1 x10_2/uL
  KIDNEY_L: 1.4 g
  KIDNEY_R: 1.4 g
  KIDNEY_TOTAL: 2.8 g
  LIVER: 15.8 g
  A/G: 1.1
  ALP: 1067.8 IU/L
  ALT: 38.8 IU/L
  AST: 65.4 IU/L
  BUN: 17.4 mg/dL
  CRE: 0.2 mg/dL
  Ca: 10.7 mg/dL
  Cl: 105.2 meq/L
  DBIL: 0.002 mg/dL
  GLC: 190.8 mg/dL
  IP: 6.6 mg/dL
  K: 4 meq/L
  LDH: 171.2 IU/L
  Na: 142 meq/L
  PL: 142.4 mg/dL
  RALB: 3.2 g/dL
  TBIL: 0.014 mg/dL
  TC: 70.8 mg/dL
  TG: 137.6 mg/dL
  TP: 6.1 g/dL
  gamma-GTP: 1.6 IU/L
[5]
  TERMINAL_BW: 205.6 g
  APTT: 20.8 s
  Bas: 0%
  Eos: 1%
  Fbg: 309.2 mg/dL
  Hb: 13.5 g/dL
  Ht: 39.1%
  Lym: 78.4%
  MCH: 21.3 pg
  MCHC: 34.4%
  MCV: 61.9 fL
  Mono: 2.2%
  Neu: 17.2%
  PT: 16.2 s
  Plat: 123.8 x10_4/uL
  RBC: 632.6 x10_4/ul
  Ret: 6.8%
  WBC: 92 x10_2/uL
  KIDNEY_L: 0.9 g
  KIDNEY_R: 0.9 g
  KIDNEY_TOTAL: 1.8 g
  LIVER: 9.6 g
  A/G: 1.4
  ALP: 1667 IU/L
  ALT: 37.4 IU/L
  AST: 73.8 IU/L
  BUN: 17.2 mg/dL
  CRE: 0.2 mg/dL
  Ca: 10.6 mg/dL
  Cl: 108.8 meq/L
  DBIL: 0 mg/dL
  GLC: 187.2 mg/dL
  IP: 7.2 mg/dL
  K: 4.3 meq/L
  LDH: 266.6 IU/L
  Na: 143.2 meq/L
  PL: 146.2 mg/dL
  RALB: 3.2 g/dL
  TBIL: 0.002 mg/dL
  TC: 77.2 mg/dL
  TG: 102.2 mg/dL
  TP: 5.6 g/dL
  gamma-GTP: 1.2 IU/L
[6]
  TERMINAL_BW: 237.7 g
  APTT: 21.4 s
  Bas: 0%
  Eos: 0.8%
  Fbg: 315.6 mg/dL
  Hb: 13.4 g/dL
  Ht: 37.5%
  Lym: 83.6%
  MCH: 21.3 pg
  MCHC: 35.6%
  MCV: 59.7 fL
  Mono: 2.2%
  Neu: 12.6%
  PT: 15.4 s
  Plat: 114 x10_4/uL
  RBC: 628.6 x10_4/ul
  Ret: 5.1%
  WBC: 110.8 x10_2/uL
  KIDNEY_L: 1 g
  KIDNEY_R: 1 g
  KIDNEY_TOTAL: 2.1 g
  LIVER: 10.7 g
  A/G: 1.2
  ALP: 1548 IU/L
  ALT: 39.8 IU/L
  AST: 72.8 IU/L
  BUN: 18 mg/dL
  CRE: 0.2 mg/dL
  Ca: 10.6 mg/dL
  Cl: 107.6 meq/L
  DBIL: 0 mg/dL
  GLC: 189.4 mg/dL
  IP: 6.5 mg/dL
  K: 4.3 meq/L
  LDH: 234.6 IU/L
  Na: 141 meq/L
  PL: 153.2 mg/dL
  RALB: 3.1 g/dL
  TBIL: 0.002 mg/dL
  TC: 76.8 mg/dL
  TG: 125.8 mg/dL
  TP: 5.6 g/dL
  gamma-GTP: 1.4 IU/L
[7]
  TERMINAL_BW: 274.7 g
  APTT: 22.2 s
  Bas: 0%
  Eos: 1%
  Fbg: 289.4 mg/dL
  Hb: 13.8 g/dL
  Ht: 40%
  Lym: 81.6%
  MCH: 20.1 pg
  MCHC: 34.6%
  MCV: 58 fL
  Mono: 2.2%
  Neu: 14.8%
  PT: 15.7 s
  Plat: 118.3 x10_4/uL
  RBC: 690.8 x10_4/ul
  Ret: 4.7%
  WBC: 112.4 x10_2/uL
  KIDNEY_L: 1.1 g
  KIDNEY_R: 1.1 g
  KIDNEY_TOTAL: 2.2 g
  LIVER: 11.9 g
  A/G: 1.1
  ALP: 1195.8 IU/L
  ALT: 41 IU/L
  AST: 69 IU/L
  BUN: 18 mg/dL
  CRE: 0.2 mg/dL
  Ca: 10.5 mg/dL
  Cl: 107.4 meq/L
  DBIL: 0 mg/dL
  GLC: 180 mg/dL
  IP: 6.5 mg/dL
  K: 4.3 meq/L
  LDH: 160.8 IU/L
  Na: 141.2 meq/L
  PL: 161 mg/dL
  RALB: 3 g/dL
  TBIL: 0.004 mg/dL
  TC: 80.6 mg/dL
  TG: 148 mg/dL
  TP: 5.7 g/dL
  gamma-GTP: 2.2 IU/L
[8]
  TERMINAL_BW: 367.4 g
  APTT: 22.6 s
  Bas: 0%
  Eos: 1%
  Fbg: 317 mg/dL
  Hb: 13.7 g/dL
  Ht: 39%
  Lym: 78.8%
  MCH: 20 pg
  MCHC: 35.1%
  MCV: 56.8 fL
  Mono: 2%
  Neu: 17%
  PT: 15.8 s
  Plat: 111.4 x10_4/uL
  RBC: 687.6 x10_4/ul
  Ret: 4.7%
  WBC: 109.2 x10_2/uL
  KIDNEY_L: 1.3 g
  KIDNEY_R: 1.3 g
  KIDNEY_TOTAL: 2.6 g
  LIVER: 14.7 g
  A/G: 1.1
  ALP: 1033.6 IU/L
  ALT: 42.6 IU/L
  AST: 71.8 IU/L
  BUN: 18 mg/dL
  CRE: 0.2 mg/dL
  Ca: 10.6 mg/dL
  Cl: 106.6 meq/L
  DBIL: 0 mg/dL
  GLC: 191 mg/dL
  IP: 6.2 mg/dL
  K: 4.3 meq/L
  LDH: 167.4 IU/L
  Na: 142 meq/L
  PL: 151.6 mg/dL
  RALB: 3.2 g/dL
  TBIL: 0.02 mg/dL
  TC: 77.6 mg/dL
  TG: 135.6 mg/dL
  TP: 6 g/dL
  gamma-GTP: 2 IU/L
